Measured values published in patent US10278942B2 (PELOTON THERAPEUTICS, INC., priority 2015, dated 2019).

Molecular target: T1, HIF-2α HIS TAG-PASB Domain (Homo sapiens, UniProt Q99814)
T1 construct: 100 nM HIF-2α HIS TAG-PASB Domain
Assay: HIF-2α Scintillation Proximity Assay (SPA)
Assay type: binding
Details: Scintillation Proximity Assay IC50 (nM)
Method in brief: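 IC50 values rest on percent inhibition, where the sample signal is scaled between high and low controls. Wells contain about 100 μL: compound dispensed as 2 μL of DMSO solution, 88 μL protein-probe mix and 10 μL of beads.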

T1 sequence (Q99814 240-350 limits assumed): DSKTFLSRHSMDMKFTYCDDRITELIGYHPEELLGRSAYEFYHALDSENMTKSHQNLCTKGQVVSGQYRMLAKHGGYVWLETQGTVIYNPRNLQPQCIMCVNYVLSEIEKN

| Structure (SMILES) | IC50 [nM] |
| --- | --- |
| O=S(=O)(c1ccc(Oc2cc(F)cc(Cl)c2)c(CO)c1)C(F)(F)F [Compound 122] | > 1000 |
| N#Cc1cc(S(=O)(=O)C(F)(F)F)ccc1Oc1cc(F)cc(Cl)c1 [Compound 119] | 50 to 249 |
| O=S(=O)(c1ccc(Oc2cc(F)cc(Cl)c2)c(Br)c1)C(F)(F)F [Compound 116] | 50 to 249 |
| CS(=O)(=O)c1ccc(Oc2cc(F)cc(Cl)c2)c(Br)c1 [Compound 138] | > 1000 |
| CS(=O)(=O)c1ccc(Oc2cc(F)cc(C#N)c2)c2c1C(O)C(F)(F)CC2 (stereo not shown) [Compound 181] | > 1000 |

Same assay, conditions: read-out: Scintillation Proximity Assay IC50

| IC50 [nM] | Structure (SMILES) |
| --- | --- |
| > 1000 | CC1(C)C=C(c2ccc(S(=O)(=O)C(F)(F)F)c3c2CC(F)(F)[C@H]3O)C(=O)CC1 [Compound 541] |
| > 1000 | CC1(O)c2c(ccc(OCc3ccccc3)c2C#N)S(=O)(=O)C1(F)F (stereo not shown) [Compound 459] |
| > 1000 | N#Cc1ccc(Oc2cc(F)cc(F)c2)c2c1[C@H](O)CC2 [Compound 66] |
| < 50 | CS(=O)(=NC#N)c1ccc(Oc2cncc(C#N)c2)c2c1[C@H](O)C(F)(F)[C@@H]2F (stereo partly shown) [Compound 319] |
| > 1000 | O=C1c2c(ccc(Oc3cc(F)cc(Cl)c3)c2Br)S(=O)(=O)C1(F)F [Compound 354] |
| > 1000 | O=S(=O)(c1ccc(Oc2cc(F)cc(Cl)c2)c(Br)c1CNCCO)C(F)(F)F [Compound 108] |
| > 1000 | O=S(=O)(c1ccc(OC2CCOCC2)c2c1C(O)CC2)C(F)(F)F (stereo not shown) [Compound 745] |
| > 1000 | O=C1CC[C@H](Oc2ccc(S(=O)(=O)C(F)(F)F)c3c2CC(F)(F)[C@H]3O)CN1 [Compound 719] |
| > 1000 | O=S(=O)(c1ccc(Oc2cc(Cl)ccc2F)c(Br)c1)C(F)(F)F [Compound 170] |
| > 1000 | CN(C)CCOc1ccc(S(=O)(=O)C(F)(F)F)c2c1CC(F)(F)C2O (stereo not shown) [Compound 641] |
| > 1000 | O=S1(=O)CCc2c1ccc(Oc1cc(F)cc(Cl)c1)c2Br [Compound 350] |
| 250 to 1000 | CS(=O)(=O)c1ccc(Oc2cc(F)cc(C#N)c2)c2c1[C@H](N)C(F)(F)[C@@H]2F [Compound 346] |
| > 1000 | O=S(=O)(c1ccc(Oc2cc(F)cc(Cl)c2)c(CCCO)c1)C(F)(F)F [Compound 126] |
| 50 to 249 | N#Cc1cc(F)cc(Oc2ccc3c(c2CF)C(O)C(F)(F)S3(=O)=O)c1 (stereo not shown) [Compound 388] |
| > 1000 | COc1cncc(Oc2ccc3c(c2Br)[C@@H](O)C(F)(F)S3(=O)=O)c1 [Compound 429] |
| > 1000 | CS(=O)(=NC#N)c1ccc(Oc2cc(F)cc(F)c2)c2c1C(O)CC2 (stereo not shown) [Compound 189] |
| > 1000 | CNCc1c(S(=O)(=O)C(F)(F)F)ccc(Oc2cc(F)cc(Cl)c2)c1Br [Compound 109] |
| > 1000 | O=S(=O)(c1ccc(-c2ccc3cn[nH]c3c2)c2c1[C@H](O)C(F)(F)C2)C(F)(F)F [Compound 568] |
| > 1000 | N#Cc1cc(F)cc(Oc2ccc(S(=N)(=O)C(F)(F)F)cc2C#N)c1 (stereo not shown) [Compound 73] |
| > 1000 | OC1c2c(Br)ccc(OC(F)(F)F)c2CC1(F)F (stereo not shown) [Compound 653] |
| > 1000 | CS(=O)(=O)c1ccc(OC2CC2)c2c1[C@H](O)C(F)(F)[C@@H]2F [Compound 773] |
| > 1000 | COc1ccc(S(=O)(=O)C(F)(F)F)c2c1CCC2O (stereo not shown) [Compound 588] |
| > 1000 | N#Cc1cncc(Oc2ccc3c(c2Br)[C@@H](O)CS3(=O)=O)c1 [Compound 420] |
| 250 to 1000 | N=S(=O)(c1ccc(Oc2cc(F)cc(Cl)c2)c(Br)c1)C(F)(F)F (stereo not shown) [Compound 71] |
| 250 to 1000 | Cc1cc(Oc2ccc(S(=O)(=O)C(F)F)c3c2CC(F)(F)C3=O)ccc1F [Compound 197] |
| > 1000 | NC(=O)C1CCc2c(OCC(F)F)ccc(C(=O)O)c21 (stereo not shown) [Compound 693] |

| IC50 [nM] | Structure (SMILES) |
| --- | --- |
| > 1000 | CS(=O)(=O)c1ccc(O[C@H]2C[C@H](O)C2)c2c1[C@H](O)C(F)(F)[C@@H]2F [Compound 738] |
| > 1000 | CS(=O)(=O)c1ccc(Oc2cc(F)cc(C#N)c2)c2c1[C@H](O)C(F)(F)[C@H]2O [Compound 311] |
| > 1000 | O=S(=O)(c1ccc(CC2CCCCC2)c2c1C(O)CC2)C(F)(F)F (stereo not shown) [Compound 508] |
| > 1000 | O=S(=O)(c1ccc(Oc2c(F)cccc2F)c(Br)c1)C(F)(F)F [Compound 176] |
| > 1000 | CS(=O)(=O)c1ccc(Oc2cc(F)cc(Cl)c2)c(C#N)c1 [Compound 139] |
| > 1000 | C[C@]1(F)Cc2c(Oc3cc(F)cc(C#N)c3)ccc(S(C)(=O)=O)c2[C@@H]1O [Compound 298] |
| > 1000 | O=C(O)COc1ccc(S(=O)(=O)C(F)(F)F)c2c1CC(F)(F)C2O (stereo not shown) [Compound 633] |
| > 1000 | O=S(=O)(c1ccc(OCCCO)c2c1C(O)CC2)C(F)(F)F (stereo not shown) [Compound 611] |
| 250 to 1000 | O=S(=O)(c1ccc(Oc2cncc(Cl)c2)c2c1[C@H](O)CC2)C(F)(F)F [Compound 184] |
| > 1000 | CS(=O)(=O)c1ccc(Oc2cc(F)cc(C#N)c2)c2c1[C@H](O)CC2(F)F [Compound 288] |
| 50 to 249 | N#Cc1c(Oc2cc(F)cc(Cl)c2)ccc2c1C(O)CS2(=O)=O (stereo not shown) [Compound 353] |
| > 1000 | N#Cc1c(Oc2cc(F)cc(Cl)c2)ccc(S(=O)(=O)C(F)(F)F)c1C(=O)O [Compound 105] |
| > 1000 | COc1ccc(S(C)(=O)=O)c2c1CC(F)(F)[C@H]2O [Compound 777] |
| 250 to 1000 | COC(=O)C(C)Oc1ccc(S(=O)(=O)C(F)(F)F)c2c1CC(F)(F)C2O (stereo not shown) [Compound 648] |
| > 1000 | O=S(=O)(c1ccc(-c2ccn[nH]2)c2c1[C@H](O)C(F)(F)C2)C(F)(F)F [Compound 561] |
| > 1000 | O[C@H]1c2c(OCC(F)F)ccc(C(F)(F)F)c2[C@@H](F)C1(F)F [Compound 689] |
| > 1000 | CNCCOc1ccc(S(=O)(=O)C(F)(F)F)c2c1CC(F)(F)C2O (stereo not shown) [Compound 650] |
| > 1000 | Nc1ncccc1-c1ccc(S(=O)(=O)C(F)(F)F)c2c1CC(F)(F)[C@H]2O [Compound 539] |
| > 1000 | OC1c2cccc(OCC(F)F)c2CC1(F)F (stereo not shown) [Compound 651] |
| > 1000 | CS(=O)(=O)c1ccc(Nc2cc(F)cc(C#N)c2)c2c1C(O)CC2 (stereo not shown) [Compound 498] |
| > 1000 | O/N=C1/c2c(C(F)(F)F)ccc(OCCCF)c2CC1(F)F [Compound 702] |
| > 1000 | C=CS(=O)(=O)c1ccc(Oc2cc(F)cc(Cl)c2)c(Br)c1 [Compound 130] |
| > 1000 | NS(=O)(=O)c1ccc(Oc2cc(F)cc(F)c2)c2c1C(O)CC2 (stereo not shown) [Compound 257] |
| > 1000 | C=CC1(O)c2c(ccc(Oc3cc(F)cc(C#N)c3)c2C#N)S(=O)(=O)C1(F)F (stereo not shown) [Compound 460] |
| > 1000 | N#CCS(=O)(=O)c1ccc(Oc2cc(F)cc(F)c2)c2c1C(O)CC2 (stereo not shown) [Compound 14] |
| > 1000 | O=C1Cc2ccc(-c3ccc(S(=O)(=O)C(F)(F)F)c4c3CC(F)(F)[C@H]4O)cc2N1 [Compound 567] |

| IC50 [nM] | Structure (SMILES) |
| --- | --- |
| > 1000 | O=C1CC[C@@H](Oc2ccc(S(=O)(=O)C(F)(F)F)c3c2CC(F)(F)[C@H]3O)CN1 [Compound 720] |
| > 1000 | O=S(=O)(c1ccc(OC2CCc3ncccc32)c2c1[C@H](O)C(F)(F)C2)C(F)(F)F (stereo partly shown) [Compound 733] |
| > 1000 | O=C(O)Cc1ccc(S(=O)(=O)C(F)(F)F)c2c1CC[C@H]2O [Compound 524, (R)-2-(1-hydroxy-7-((trifluoromethyl)sulfonyl)-2,3-dihydro-1H-inden-4-yl)acetic acid] |
| > 1000 | CC1(COc2ccc(S(=O)(=O)C(F)(F)F)c3c2CCC3O)COC1 (stereo not shown) [Compound 621] |
| > 1000 | N#Cc1cncc(Oc2ccc(S(=O)(=O)C(F)F)c3c2CC[C@H]3O)c1 [Compound 4] |
| > 1000 | CC(C)(C)OC(=O)N[C@H]1C[C@@H](O)c2c(S(=O)(=O)C(F)(F)F)ccc(Oc3cc(F)cc(C#N)c3)c21 [Compound 278] |
| < 50 | N#Cc1cc(F)cc(Oc2ccc(S(=O)(=O)C(F)(F)F)c(Cl)c2C#N)c1 [Compound 29] |
| > 1000 | O=S(=O)(c1ccc(OC2CCNCC2)c2c1C(O)CC2)C(F)(F)F (stereo not shown) [Compound 606] |
| > 1000 | N#Cc1ccc(OCC(F)F)c2c1[C@H](O)C(F)(F)C2 [Compound 688] |
| > 1000 | CS(=O)(=O)c1ccc(Nc2ccc(F)cc2)c2c1C(O)C(F)(F)C2 (stereo not shown) [Compound 501] |
| > 1000 | CO[C@H]1c2c(S(C)(=O)=O)ccc(Oc3cc(F)cc(C#N)c3)c2CC1(F)F [Compound 210] |
| > 1000 | CS(=O)(=O)c1ccc(OCCC2(C#N)CC2)c2c1[C@H](O)C(F)(F)[C@@H]2F [Compound 772] |
| > 1000 | Cc1c([S+]([O-])C(F)F)ccc(Oc2cc(F)cc(Cl)c2)c1C#N (stereo not shown) [Compound 37] |
| > 1000 | O=S(=O)(c1ccc(Cc2ccccc2)c2c1C(O)CC2)C(F)(F)F (stereo not shown) [Compound 510] |
| > 1000 | CC(=O)NCCOc1ccc(S(=O)(=O)C(F)(F)F)c2c1CC(F)(F)C2O (stereo not shown) [Compound 636] |
| > 1000 | O=S(=O)(c1ccc(Oc2cc(F)cc3[nH]ncc23)c2c1C(O)C(F)(F)C2)C(F)(F)F (stereo not shown) [Compound 262] |
| > 1000 | N#Cc1c(Oc2cc(F)cc(Cl)c2)ccc(S(=O)(=O)C(F)(F)F)c1NCCO [Compound 154] |
| < 50 | COCCNC1c2c(ccc(Oc3cc(F)cc(F)c3)c2Br)S(=O)(=O)C1(F)F (stereo not shown) [Compound 379] |
| > 1000 | C=C1CC(O)c2c(S(C)(=O)=O)ccc(Oc3cc(F)cc(Cl)c3)c21 (stereo not shown) [Compound 280] |
| > 1000 | NC1CCc2c(Oc3cc(F)cc(F)c3)ccc(S(=O)(=O)C(F)F)c21 (stereo not shown) [Compound 19] |
| > 1000 | Cc1c(S(C)(=O)=O)ccc(Oc2cc(F)cc(C#N)c2)c1C#N [Compound 51] |
| > 1000 | O=S(=O)(c1ccc(OC2CCC(O)CC2)c2c1C(O)CC2)C(F)(F)F (stereo not shown) [Compound 615] |
| > 1000 | N#Cc1cc(F)cc(Oc2ccc3c(c2Br)[C@@H](O)CS3(=O)=O)c1 [Compound 415] |
| > 1000 | CCOc1ccc(S(=O)(=O)C(F)(F)F)c2c1CCC2O (stereo not shown) [Compound 589] |
| 50 to 249 | CS(=O)(=O)c1ccc(OC[C@H]2CC2(F)F)c2c1[C@H](O)C(F)(F)[C@@H]2F [Compound 769] |
